These results are taken from ChEMBL document CHEMBL5543084, “Development of cannabidiol derivatives as potent broad-spectrum antibacterial agents with membrane-disruptive mechanism” (Eur J Med Chem, 2024).

The structures appear in SMILES notation. Converted amounts (≈) assume the structure as drawn.

Data set [1] deals with Klebsiella pneumoniae. Briefly: Antibacterial activity against Klebsiella pneumoniae ATCC 10031 assessed as inhibition of bacterial growth incubated for 24 hrs by broth dilution method. The format is functional.
The subject of data set [2] is Acinetobacter baumannii. Kind of data set: Antibacterial activity against Acinetobacter baumannii R2889 assessed as inhibition of bacterial growth incubated for 24 hrs by broth dilution method. The format is functional.
For data set [3], the system named is Staphylococcus aureus. Kind of data set: Antibacterial activity against methicillin-resistant Staphylococcus aureus N315 assessed as inhibition of bacterial growth incubated for 24 hrs by broth dilution method. The format is functional.
For data set [4], the system named is Acinetobacter baumannii. Kind of data set: Antibacterial activity against Acinetobacter baumannii ATCC 17978 assessed as inhibition of bacterial growth incubated for 24 hrs by broth dilution method. It counts as functional.
Data set [5] concerns Staphylococcus aureus. Briefly: Antibacterial activity against Staphylococcus aureus ATCC 29213 assessed as inhibition of bacterial growth incubated for 24 hrs by broth dilution method. The format is functional.
Data set [6] relates to Klebsiella pneumoniae. Kind of data set: Antibacterial activity against Klebsiella pneumoniae ATCC 14581 assessed as inhibition of bacterial growth incubated for 24 hrs by broth dilution method. The format is functional.
A short description of data set [7]: Hemolytic activity against rabbit blood cells incubated for 1 hr relative to control. The format is toxicity, cell-based, Oryctolagus cuniculus, Erythrocyte. To be noted: rabbit blood cells (erythrocytes).
A further data set relates to Escherichia coli. Briefly: Antibacterial activity against Escherichia coli ATCC 25922 assessed as inhibition of bacterial growth incubated for 24 hrs by broth dilution method. It counts as functional.
Data set [8] concerns Staphylococcus aureus. Briefly: Antibacterial activity against methicillin-resistant Staphylococcus aureus NCTC 10442 assessed as inhibition of bacterial growth incubated for 24 hrs by broth dilution method. It counts as functional.
Another data set has as its system Pseudomonas aeruginosa. Kind of data set: Antibacterial activity against Pseudomonas aeruginosa ATCC 9027 assessed as inhibition of bacterial growth incubated for 24 hrs by broth dilution method. It counts as functional.

On to `C=C(C)[C@@H]1CCC(C)=C[C@H]1c1c(OCC(=O)N[C@@H](CCCCN)C(=O)OC)cc(CCCCC)cc1OCC(=O)N[C@@H](CCCCN)C(=O)OC`, for which the MIC with Klebsiella pneumoniae [1] is 50 µg/mL (≈ 69.9 µM); with Acinetobacter baumannii [2], 50 µg/mL (≈ 69.9 µM); in the data set on Staphylococcus aureus [3], 25 µg/mL (≈ 35 µM); in the data set on Acinetobacter baumannii [4] it was 50 µg/mL (≈ 69.9 µM); with Staphylococcus aureus [5] it was 25 µg/mL (≈ 35 µM); with Klebsiella pneumoniae [6], over 50 µg/mL. Besides, the minimum inhibitory concentration (MIC) is 50 µg/mL (≈ 69.9 µM) with Escherichia coli, 25 µg/mL (≈ 35 µM) in the data set with Staphylococcus aureus [8] and over 50 µg/mL in the data set on Pseudomonas aeruginosa. In [7], this compound came in with an HC50 at 1 h of 116 µg/mL.
With `C=C(C)[C@@H]1CCC(C)=C[C@H]1c1c(OCCCCN)cc(CCCCC)cc1OCCCCN`, the MIC in the data set with Klebsiella pneumoniae [1] worked out at 6.25 µg/mL (≈ 13.7 µM); with Acinetobacter baumannii [2], 3.12 µg/mL (≈ 6.84 µM); in the data set on Staphylococcus aureus [3], 3.12 µg/mL (≈ 6.84 µM); in the data set with Acinetobacter baumannii [4], 3.12 µg/mL (≈ 6.84 µM); in the data set on Staphylococcus aureus [5] it was 3.12 µg/mL (≈ 6.84 µM); with Klebsiella pneumoniae [6] it was 12.5 µg/mL (≈ 27.4 µM). Further, the MIC was found to be 3.12 µg/mL (≈ 6.84 µM) in the data set on Escherichia coli, 3.12 µg/mL (≈ 6.84 µM) in the data set on Staphylococcus aureus [8] and 50 µg/mL (≈ 109 µM) in the data set with Pseudomonas aeruginosa. The same compound displayed an HC50 at 1 h in data set [7] of 141 µg/mL.
Turning to `C=C(C)[C@@H]1CCC(C)=C[C@H]1c1c(OCCCCCN)cc(CCCCC)cc1OCCCCCN`, the MIC was determined as 6.25 µg/mL (≈ 12.9 µM) in the data set on Klebsiella pneumoniae [1]; 12.5 µg/mL (≈ 25.8 µM) in the data set on Acinetobacter baumannii [2]; 3.12 µg/mL (≈ 6.45 µM) in the data set on Staphylococcus aureus [3]; 6.25 µg/mL (≈ 12.9 µM) in the data set on Acinetobacter baumannii [4]; 3.12 µg/mL (≈ 6.45 µM) in the data set with Staphylococcus aureus [5]; 6.25 µg/mL (≈ 12.9 µM) in the data set with Klebsiella pneumoniae [6]. The MIC with Escherichia coli was 6.25 µg/mL (≈ 12.9 µM); in the data set on Staphylococcus aureus [8] it was 1.56 µg/mL (≈ 3.22 µM); in the data set on Pseudomonas aeruginosa, over 50 µg/mL. Also, the HC50 at 1 h in data set [7] was 65.9 µg/mL.
`C=C(C)[C@@H]1CCC(C)=C[C@H]1c1c(OCCCCCCCCCCBr)cc(CCCCC)cc1OCCCCCCCCCCBr`: the MIC with Klebsiella pneumoniae [1], in the data set on Acinetobacter baumannii [2], in the data set with Staphylococcus aureus [3], with Acinetobacter baumannii [4], in the data set with Staphylococcus aureus [5] and in the data set with Klebsiella pneumoniae [6] was over 50 µg/mL in each case. For the same compound, the minimum inhibitory concentration (MIC) with Escherichia coli, with Staphylococcus aureus [8] and with Pseudomonas aeruginosa was over 50 µg/mL in each case. This compound gave an HC50 at 1 h in data set [7] of over 200 µg/mL.
In the case of `C=C(C)[C@@H]1CCC(C)=C[C@H]1c1c(OCC(=O)OCC)cc(CCCCC)cc1OCC(=O)OCC`, the MIC in the data set on Klebsiella pneumoniae [1], with Acinetobacter baumannii [2], with Staphylococcus aureus [3], in the data set with Acinetobacter baumannii [4], in the data set on Staphylococcus aureus [5] and with Klebsiella pneumoniae [6] was over 50 µg/mL in each case. Besides, the results for the MIC in the data set with Escherichia coli, in the data set with Staphylococcus aureus [8] and in the data set on Pseudomonas aeruginosa were over 100 µg/mL, over 50 µg/mL and over 50 µg/mL, respectively. In data set [7], this compound came in with an HC50 at 1 h of over 200 µg/mL.
On to `C=C(C)[C@@H]1CCC(C)=C[C@H]1c1c(OCCCCCCNC(=N)N)cc(CCCCC)cc1OCCCCCCNC(=N)N`, for which the MIC in the data set with Klebsiella pneumoniae [1] was 25 µg/mL (≈ 41.9 µM); in the data set on Acinetobacter baumannii [2], 12.5 µg/mL (≈ 20.9 µM); in the data set on Staphylococcus aureus [3] it was 1.56 µg/mL (≈ 2.61 µM); in the data set on Acinetobacter baumannii [4], 12.5 µg/mL (≈ 20.9 µM); in the data set with Staphylococcus aureus [5] it was 0.78 µg/mL (≈ 1.31 µM); in the data set with Klebsiella pneumoniae [6], over 50 µg/mL. For the same compound, the results for the MIC in the data set on Escherichia coli, in the data set with Staphylococcus aureus [8] and in the data set on Pseudomonas aeruginosa were 12.5 µg/mL (≈ 20.9 µM), 1.56 µg/mL (≈ 2.61 µM) and over 50 µg/mL, respectively. This compound came in with a concentration for 50% haemolysis (HC50) at 1 h in data set [7] of 72.6 µg/mL.
In the case of `C=C(C)[C@@H]1CCC(C)=C[C@H]1c1c(OCCCCCCBr)cc(CCCCC)cc1OCCCCCCBr`, the MIC with Klebsiella pneumoniae [1], with Acinetobacter baumannii [2], in the data set on Staphylococcus aureus [3], with Acinetobacter baumannii [4], with Staphylococcus aureus [5] and with Klebsiella pneumoniae [6] was over 50 µg/mL throughout. Besides, the MIC in the data set with Escherichia coli was over 100 µg/mL; with Staphylococcus aureus [8], over 50 µg/mL; in the data set with Pseudomonas aeruginosa it was over 50 µg/mL. The HC50 at 1 h in [7] is over 200 µg/mL.
Consider `C=C(C)[C@@H]1CCC(C)=C[C@H]1c1c(OCCCCI)cc(CCCCC)cc1OCCCCI`, for which the MIC in the data set on Klebsiella pneumoniae [1], in the data set on Acinetobacter baumannii [2], in the data set on Staphylococcus aureus [3], in the data set on Acinetobacter baumannii [4], with Staphylococcus aureus [5] and in the data set on Klebsiella pneumoniae [6] was over 50 µg/mL in each case. Moreover, the results for the MIC in the data set with Escherichia coli, in the data set on Staphylococcus aureus [8] and in the data set with Pseudomonas aeruginosa were over 100 µg/mL, over 50 µg/mL and over 50 µg/mL, respectively. The HC50 at 1 h in data set [7] is over 200 µg/mL.
As to `C=C(C)[C@@H]1CCC(C)=C[C@H]1c1c(OCC(=O)O)cc(CCCCC)cc1OCC(=O)O`, the MIC in the data set with Klebsiella pneumoniae [1], in the data set with Acinetobacter baumannii [2], in the data set with Staphylococcus aureus [3], in the data set on Acinetobacter baumannii [4], in the data set on Staphylococcus aureus [5] and with Klebsiella pneumoniae [6] was over 50 µg/mL in each case. Besides, the minimum inhibitory concentration (MIC) in the data set on Escherichia coli, with Staphylococcus aureus [8] and in the data set on Pseudomonas aeruginosa was over 50 µg/mL each time. The compound also came in with a concentration for 50% haemolysis (HC50) at 1 h in [7] of over 200 µg/mL.
